From US7282518B2, “Benzimidazole compounds for modulating IgE and inhibiting cellular proliferation” (Avanir Pharmaceuticals, priority 2001, dated 2007)

Assays:
Splenic B cells = assay: Spleen cell / splenic B cell proliferation, 3H-thymidine incorporation; type: cell-based, mouse
Description: (§1) Spleen cell cultures were established from naive BALB/c mice and incubated for 4 days in the presence of stimulus and drug. Cultures were pulsed for 4 hours with 3H-thymidine and harvested. A variety of experiments were performed in an effort to determine the effect of the benzimidazole compounds on cellular proliferation. These experiments ultimately measured ^3H-thymidine incorporation into proliferating cell DNA. The specific procedure varied with the cells and the stimuli. Cells derived from mouse spleen were cultured at 3 million per ml; cell lines were seeded at 0.1 to 1 million per ml. Splenic B cells were isolated by T cell depletion and stimulated with phorbol myristate acetate (PMA) (10 ng/ml) plus ionomycin (100 nM), or IL-4 (10 ng/ml) plus anti-CD40 Ab (100 ng/ml). T cells were depleted prior to culture by incubating spleen cells first with a cocktail of anti-Thyl ascites (10%), anti-CD4 Ab (0.5 μg/ml) and anti-CD8 Ab (0.5 μg/ml), followed by guinea pig complement (adsorbed). Cell lines were unstimulated or stimulated with Human Epidermal Growth Factor (EGF) (100 ng/ml). All cells were cultured in 96-well plates for 2–3 days and pulsed for 6 to 14 hours with 50 μl of 3H-thymidine (50 μCi/ml).

IgE responses = assay: In vitro IgE responses to IL-4/anti-CD40 Ab; type: cell-based
cytokine release = assay: ConA-stimulated cytokine release; type: cell-based
[1] = tested on: murine M12.4.1 lymphoma cells; assay: M12.4.1 lymphoma cell proliferation, 3H-thymidine incorporation; type: cell-based
Description: as §1, with “A” for “Spleen cell cultures were established from naive BALB/c mice and incubated for 4 days in the presence of stimulus and drug. Cultures were pulsed for 4 hours with 3H-thymidine and harvested. A”, “μCi/ml). In tumor cells, the results with splenic lymphocytes led to a further analysis of cellular proliferation by measuring the growth of tumor cells in the presence of these drugs. The initial analysis was performed with murine M12.4.1 lymphoma cells, either un-stimulated or stimulated with IL-4/anti-CD40 Ab. […]” for “μCi/ml).”

[2] = tested on: tumor lines derived from a variety of tissues; assay: Proliferation of a battery of tumor lines from a variety of tissues; type: cell-based, mostly human; details: in vitro
Description: as §1, with “A” for “Spleen cell cultures were established from naive BALB/c mice and incubated for 4 days in the presence of stimulus and drug. Cultures were pulsed for 4 hours with 3H-thymidine and harvested. A”, “μCi/ml). A similar approach was used to establish selectivity of the anti-proliferative activity by testing a battery of tumor lines derived from a variety of tissues, mostly human in origin. An attempt was made to generate proliferation data from at least 2 cell lines from each tissue selected. […]” for “μCi/ml).”

[3] = tested on: EGF-responsive cell lines; assay: Proliferation of EGF-responsive (ER-negative/EGFR-positive) breast cancer cell lines; type: cell-based; details: in vitro
Description: as §1, with “A” for “Spleen cell cultures were established from naive BALB/c mice and incubated for 4 days in the presence of stimulus and drug. Cultures were pulsed for 4 hours with 3H-thymidine and harvested. A”, “μCi/ml). A similar approach was used to establish selectivity of the anti-proliferative activity by testing a battery of tumor lines derived from a variety of tissues, mostly human in origin. An attempt was made to generate proliferation data from at least 2 cell lines from each tissue selected. […]” for “μCi/ml).”

ER-positive cell lines = assay: Proliferation of ER-positive breast cancer cell lines; type: cell-based; details: in vitro
Description: as §1, with “A” for “Spleen cell cultures were established from naive BALB/c mice and incubated for 4 days in the presence of stimulus and drug. Cultures were pulsed for 4 hours with 3H-thymidine and harvested. A”, “μCi/ml). A similar approach was used to establish selectivity of the anti-proliferative activity by testing a battery of tumor lines derived from a variety of tissues, mostly human in origin. An attempt was made to generate proliferation data from at least 2 cell lines from each tissue selected. […]” for “μCi/ml).”

O=C(Nc1ccccn1)c1ccc2[nH]c(-c3ccc(NC(=O)C45C[C@H]6C[C@@H](C4)C[C@@H](C5)C6)cc3)nc2c1 [Compound I.82]
anti-proliferative activity to T and B lymphocytes exposed to a variety of immunogenic stimuli (Splenic B cells; in vitro): highly potent | spleen cell proliferation responses (FIG. 1) (Splenic B cells; naive BALB/c mice, 4 days with stimulus and drug, 4 hours 3H-thymidine pulse): suppression of spleen cell proliferation responses | B cell proliferation response to IL-4/anti-CD40 Ab (Splenic B cells; spleen cells, IL-4 (10 ng/ml) plus anti-CD40 Ab (100 ng/ml)): suppressed | B cell proliferation response to PMA/ionomycin (Splenic B cells; spleen cells, PMA (10 ng/ml) plus ionomycin (100 nM)): suppressed | in vitro IgE responses to IL-4/anti-CD40 Ab (IgE responses): suppressed in vitro IgE responses | ConA-stimulated cytokine release (cytokine release): inhibition | proliferation of M12.4.1 cells, potency ([1]; cultured with IL-4/anti-CD40 Ab): increased | proliferation of M12.4.1 cells ([1]; un-stimulated): suppressed the proliferation of M12.4.1 cells but with lower potency | sensitivity of tumor cell lines (proliferation) [2]: a number of tumor cell lines are sensitive | proliferation of all EGF-responsive cell lines [3]: potently inhibited | number of ER-positive cell lines potently inhibited (ER-positive cell lines): 2 of the 5
